Here are results for 2 compounds from patent US20070202547A1, “Methods For Detecting Substances Which Bind To The Amyloid Precursor Protein Or Beta Amyloid Fragments, And Binding Compounds” (priority 2004, published 2007).

What all share (type): biochemical
Test [1] addresses T1, BACE2 (Homo sapiens, UniProt P05067, A673V/D672E/K670N/M671F).
T1 construct: IC50, BACE2 cleavage of APP at the beta-secretase cleavage site; other: MBP-biotinylated APP fusion protein with NFEV s; activity against BACE2 cleavage of APP at the beta-secretase position; other: result in words; biotin label
The experiment in a line: BACE2 cleavage of APP at the beta-secretase cleavage site (ALPHA). The conditions noted are these: MBP-biotinylated APP fusion protein with NFEV site, pH 4.5, 30 minutes. On the procedure:
(§1) The effect of Examples 1-4 on cleavage of APP at the beta-secretase cleavage site was assayed as follows:
(§2) • 25 μL 0.2 M Sodium Acetate, pH 4.5 • 10 μL 10× protease inhibitor cocktail (Roche, cat # 1836153) • 10 μL Bovine Serum Albumin (1 mg/mL solution) • 4 μL 5% CHAPS • 1 μL EDTA (150 mM, pH 4.5) • 2 μL DF • 4 μL MBP(Maltose binding protein)—biotininylated APP fusion protein containing the NFEV BACE cleavage site (bacterially expressed, 10 μM solution) • 1 μL DMSO or compound dissolved in DMSO • 2 μL BACE2 (CHO cell expressed protein, 250 nM) • 41 μL distilled water The reactions were incubated at 37° C. for 30 minutes, and were then quenched with 4 μL 1 M TrisHCl, pH 8.0. Detection of MBP Biotin APP(NF) Cleavage Product using ALPHA ALPHA Assay Mix was Prepared as Follows: • 20 μL Streptavidin Donor Beads (from AlphaScreen General IgG (Protein A) Detection Kit Perkin Elmer Life Sciences); 10,000 pts (Part Number 6760617M) • 20 μL Protein A Acceptor beads (from AlphaScreen General IgG (Protein A) Detection Kit Perkin Elmer Life Sciences); 10,000 pts (Part Number 6760617M) • 3.7 μL Affinity purified anti-NF antibody (203 μg/mL) (described in WO 02/094985) • 4.5 mL 0.1% BSA in PBS • 4 μL of quenched reaction mixture was combined with 46 μL of the assay mix. The reactions were incubated at room temperature overnight and read using the ALPHAQuest plate reader.

The next test has as its target gamma-secretase (Homo sapiens, UniProt P05067). The experiment in a line: Gamma-secretase cleavage of CTFβ substrate (HeLa cell membrane extract). The conditions noted are these: Aβ40 detection with 6E-10/G2-10, read-out: CTFβ CLEAVAGE AT POSITION 40. On the procedure: Accordingly, Examples 1-4 were tested for their ability to inhibit gamma-secretase cleavage of both a full-length CTFβ substrate, as described in Li, 2000, Proc. Natl Acad Sci. 97:6138-6143. The assays were carried out as follows:
Inhibition of CTFβ Cleavage
• 10 μL 10× protease inhibitor cocktail (Roche, cat # 1836153) • 25 μL 4× Buffer (50 mM PIPES pH7.0, 150 mM KCl, 5 mM MgCl2, 5 mM CaCl2) • 2 μL 10% CHAPSO • 5 μL HeLa cell membrane extract characterized for gamma-secretase activity • 7 μL 25 μM bacterially expressed CTFβ • 51 μL water • 1 μL compound in DMSO The reactions were incubated at 37° C. for 150 min and quenched with 25 μL 5× RIPA buffer (750mM NaCl, 5% NP-40, 2.5% DOC, 0.5% SDS, 250 mM Tris H8.0). Detection:
Gamma-secretase cleavage of the CTFβ substrate was assessed by incubating 50 μL of the reaction with 25 μL of 4 μg/mL biotinylated antibody 6E-10 which is specific for the N-terminal region of Aβ, and 25 μL of 1.5 μg/mL of a ruthinylated antibody G2-10, which is specific to the C-terminal region of Aβ40. The C-terminal region is present only after gamma secretase cleavage of Aβ. The antibodies were allowed to bind overnight at room temperature. The following day, 25 μL of 80 μg/mL streptavidin-coated Dynabeads (M-280) were added to each reaction, allowed to bind for 30 minutes, and quenched with 275 μL IGEN assay buffer. Quantification of the gamma-secretase cleavage products was carried out using an Origen Analyzer.

In test [2] the test system is BACE2. In words: BACE2 cleavage of EV amyloid / Aβ (mass spectrometric analysis). The conditions noted are these: 100 μM, result in words. As to the method:
The effect of inhibition of BACE 2 cleavage of EV amyloid was assayed using a protocol described in Shi et al, 2003, J. Biol. Chem., 278:21286-21294. The results of assaying Examples 1-4 at 100 μM are shown below: […]

Test [3] addresses T2, BACE2 (Homo sapiens, UniProt P05067, K670N/M671F/D672E/A673V).
T2 construct: IC50, BACE2 cleavage of APP at the beta-secretase cleavage site; other: MBP-biotinylated APP fusion protein with NFEV s; activity against BACE2 cleavage of APP at the beta-secretase position; other: result in words; biotin label
The experiment in a line: BACE2 cleavage of APP at the beta-secretase cleavage site (ALPHA). The following applies: result in words. As to the method: as §1, §2

For test [4], the system named is BACE1. The experiment in a line: BACE1 cleavage of full-length APP or beta-site P5/P5' peptide (FIG. 3). The conditions noted are these: relative to DMSO-treated. From the text: (§3) FIG. 3(A) depicts inhibition by Statine-Val, which is a known inhibitor of BACE cleavage of both APP and APP fragments, including the beta-site P5/P5′ peptide fragment. […] depicts inhibition by Example 4. The graphs depict inhibition of cleavage of a full-length APP substrate (∘) or the beta-site P5/P5 fragment. (□). Enzymatic activity is shown relative to DMSO-treated BACE cleavage.

The target in test [5] is BACE1 (Homo sapiens, UniProt P56817). The test is described as above. The conditions noted are these: relative to DMSO-treated.
Sequence of BACE1 (Homo sapiens, UniProt P56817) (P56817 46-501): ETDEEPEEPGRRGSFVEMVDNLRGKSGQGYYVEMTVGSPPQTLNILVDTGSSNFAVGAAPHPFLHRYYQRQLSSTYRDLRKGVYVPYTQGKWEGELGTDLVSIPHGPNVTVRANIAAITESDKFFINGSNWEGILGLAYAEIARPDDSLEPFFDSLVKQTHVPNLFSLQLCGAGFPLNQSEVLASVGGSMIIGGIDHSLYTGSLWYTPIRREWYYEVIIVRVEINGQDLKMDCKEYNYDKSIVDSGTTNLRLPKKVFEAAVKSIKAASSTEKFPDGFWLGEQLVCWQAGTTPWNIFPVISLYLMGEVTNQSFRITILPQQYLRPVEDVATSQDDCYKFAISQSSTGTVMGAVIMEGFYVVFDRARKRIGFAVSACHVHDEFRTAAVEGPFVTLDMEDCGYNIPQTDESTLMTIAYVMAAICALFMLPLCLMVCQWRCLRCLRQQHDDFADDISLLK
Description: as §3

On to `O=C(O)COc1ccc2c(c1)CC(CCc1ccccc1)O2` (stereo not drawn) [Example 3], for which the IC50 against BACE2 [1] is ~100 µM; on gamma-secretase, 49 µM.

In the case of `Oc1cc2c(cc1CCCOc1ccc(-c3nnn[nH]3)cc1Cl)OC(CCc1ccccc1)C2` (stereo not drawn) [Example 4, 6-{3-[2-chloro-4-(1H-tetrazol-5-yl)phenoxy]propyl}-2-(2-phenylethyl)-2,3-dihydro-1benzofuran-5-oI], the “effect on BACE2 cleavage at all Aβ sites” value with BACE2 [2] (FIG. 1) is “suppressed cleavage at all Aβ sites”. Besides, in the test with BACE2 [2], the “effect on BACE2 cleavage at position 34” value is “blocked cleavage at position 34”; the “effect on BACE2 cleavage at positions 19 and 20” value was “enhanced cleavage of Aβ at positions 19 and 20”. At BACE2 [1], this compound returned an IC50 of 20 µM. Also, on BACE2 [3], the “activity against BACE2 cleavage of APP at the beta-secretase position” value is listed as “capable of inhibiting BACE2 cleavage of APP at the beta-secretase position with similar effectiveness to their inhibition of BACE1 cleavage at the same site”. Moreover, the “inhibition of BACE1 cleavage of full-length APP substrate” value in the test on BACE1 [4] is given as “inhibits cleavage of APP only”. Besides, at BACE1 [5], the “inhibition of BACE1 cleavage of beta-site P5/P5' peptide fragment” value was “inhibits cleavage of APP only”.
